pIC50: −log10 of the molar value.
Molecular target: recombinant human Tyro3 (Homo sapiens (Human), UniProt Q06418)
Experiment: Tyro3 Enzymatic Assay
Assay type: biochemical
Conditions: radiometric [32P]-ATP kinase assay, Poly(Glu, Tyr) substrate, 2 nM enzyme
Experimental: Poly(Glu, Tyr) sodium salt (Glu:Tyr (4:1), quality level 200, molecular weight 5,000-20,000, obtained from Sigma Aldrich, catalogue #P7244, assay concentration 0.20 mg/mL) and recombinant human Tyro3 (obtained from ThermoFisher Scientific, catalogue #PV3828, assay concentration 2 nM) were mixed in assay buffer (20 mM Hepes pH 7.5, 10 mM MgCl2, […] EGTA, 0.02% Brij35, 0.02 mg/ml BSA, 0.1 mM Na3VO4, 2 mM DTT, 1% DMSO, with added MnCl2 at a final concentration of 2 mM). Compounds of interest (in DMSO, serial 3-fold dilution from 10 μM to 0.5 nM) or control (1% DMSO) were dispensed into the kinase reaction mixture by Acoustic technology (Echo550; nanoliter range). After incubation at room temperature for 20 minutes, the kinase reaction was initiated by addition of [^32P]-ATP (Specific activity 10 μCi/μL) and the mixture was incubated at room temperature for 2 hours. The reaction was then stopped by spotting the reaction mixture on strips of phosphocellulose P81 paper. Following washing, the radioactivity of the P81 paper was measured and kinase activity data were expressed as the percent remaining kinase activity in test samples compared to vehicle (dimethyl sulfoxide) reactions. IC50 values and curve fits were obtained using Prism (GraphPad Software).

recombinant human Tyro3, sequence (Q06418 41-890): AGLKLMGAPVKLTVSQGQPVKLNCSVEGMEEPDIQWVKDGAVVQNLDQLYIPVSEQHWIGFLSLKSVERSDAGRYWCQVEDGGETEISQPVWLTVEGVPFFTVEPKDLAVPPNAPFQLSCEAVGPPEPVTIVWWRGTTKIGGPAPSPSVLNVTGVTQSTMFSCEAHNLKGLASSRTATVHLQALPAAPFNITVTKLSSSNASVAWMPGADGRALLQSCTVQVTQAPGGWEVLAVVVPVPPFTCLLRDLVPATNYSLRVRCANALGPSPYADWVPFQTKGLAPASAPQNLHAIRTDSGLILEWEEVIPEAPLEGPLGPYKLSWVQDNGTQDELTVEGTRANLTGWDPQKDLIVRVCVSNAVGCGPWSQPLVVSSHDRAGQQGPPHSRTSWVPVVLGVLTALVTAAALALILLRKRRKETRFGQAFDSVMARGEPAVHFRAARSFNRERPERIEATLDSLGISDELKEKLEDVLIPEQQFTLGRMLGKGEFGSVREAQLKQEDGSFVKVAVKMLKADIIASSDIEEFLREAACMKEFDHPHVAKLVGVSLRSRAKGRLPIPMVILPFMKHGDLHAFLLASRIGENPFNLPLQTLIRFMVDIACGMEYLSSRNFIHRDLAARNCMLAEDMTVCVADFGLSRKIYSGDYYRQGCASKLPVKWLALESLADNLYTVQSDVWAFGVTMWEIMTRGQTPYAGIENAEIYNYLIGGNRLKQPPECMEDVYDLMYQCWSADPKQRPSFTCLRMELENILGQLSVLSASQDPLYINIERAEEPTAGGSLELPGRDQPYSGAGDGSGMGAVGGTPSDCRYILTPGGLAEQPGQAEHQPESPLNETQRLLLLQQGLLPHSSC

COc1nn(C2CCN(C(C)=O)CC2)cc1-c1cnc2[nH]cc(-c3cccc(F)c3)c2c1 [Compound 30, 1-(4-(4-(3-(3-fluorophenyl)-1H-pyrrolo[2,3-b]pyridin-5-yl)-3-methoxy-1H-pyrazol-1-yl)piperidin-1-yl)ethan-1-one]
pIC50: < 6.30

COc1nn(C2CN(C)C2)cc1-c1cnc2[nH]cc(-c3cccc(F)c3)c2c1 [Compound 13, 3-(3-fluorophenyl)-5-(3-methoxy-1-(1-methylazetidin-3-yl)-1H-pyrazol-4-yl)-1H-pyrrolo[2,3-b]pyridine]
pIC50: > 7.30

COc1ccc(-c2c[nH]c3ncc(-c4cnn(CC5CCN(C)CC5)c4)cc23)cn1 [Compound 31, 3-(6-methoxypyridin-3-yl)-5-(1-((1-methylpiperidin-4-yl)methyl)-1H-pyrazol-4-yl)-1H-pyrrolo[2,3-b]pyridine]
pIC50: 6.30 to 6.82

CCc1[nH]c2ncc(-c3cn(C4CCN(C)CC4)nc3OC)cc2c1-c1cccc(C(F)F)c1 [Compound 27, 3-(3-(difluoromethyl)phenyl)-2-ethyl-5-(3-methoxy-1-(1-methylpiperidin-4-yl)-1H-pyrazol-4-yl)-1H-pyrrolo[2,3-b]pyridine]
pIC50: 6.82 to 7.29

CCOc1nn(C2CCN(C)CC2)cc1-c1cnc2[nH]cc(-c3ccc(C(F)F)nc3)c2c1 [Compound 19, 3-(6-(difluoromethyl)pyridin-3-yl)-5-(3-ethoxy-1-(1-methylpiperidin-4-yl)-1H-pyrazol-4-yl)-1H-pyrrolo[2,3-b]pyridine]
pIC50: > 7.30

CCOc1nn(C2CCN(C)CC2)cc1-c1cnc2[nH]cc(-c3ccc(OC)nc3)c2c1 [Compound 3, 5-(3-ethoxy-1-(1-methylpiperidin-4-yl)-1H-pyrazol-4-yl)-3-(6-methoxypyridin-3-yl)-1H-pyrrolo[2,3-b]pyridine]
pIC50: > 7.30

COc1nn(C2CCCN(C)CC2)cc1-c1cnc2[nH]cc(-c3cccc(F)c3)c2c1 (stereo not drawn) [Compound 14, 3-(3-fluorophenyl)-5-(3-methoxy-1-(1-methylazepan-4-yl)-1H-pyrazol-4-yl)-1H-pyrrolo[2,3-b]pyridine]
pIC50: > 7.30

CCc1[nH]c2ncc(-c3cn(C4CCN(C)CC4)nc3Cl)cc2c1-c1ccc(OC)nc1 [Compound 23, 5-(3-chloro-1-(1-methylpiperidin-4-yl)-1H-pyrazol-4-yl)-2-ethyl-3-(6-methoxypyridin-3-yl)-1H-pyrrolo[2,3-b]pyridine]
pIC50: 6.82 to 7.29

COc1ccc(-c2c[nH]c3ncc(-c4cn(C5CCN(C)CC5)nc4F)cc23)cn1 [Compound 4, 5-(3-fluoro-1-(1-methylpiperidin-4-yl)-1H-pyrazol-4-yl)-3-(6-methoxypyridin-3-yl)-1H-pyrrolo[2,3-b]pyridine]
pIC50: 6.82 to 7.29

— patent publication US20250019378A1, “PYRROLE[2,3-B]PYRIDINE DERIVATIVES AS TYRO3 INHIBITORS” (HALIA THERAPEUTICS, INC., priority 2021, published 2025)
